Measurements published in patent US20060258746A1, “Oral medicament for improvement in going to sleep or waking” (Kyowa Hakko Kogyo Co., Ltd., priority 2005, published 2006).

Experiments:
[1] = test system: subjects; assay: Test Example 1: intake of ornithine tablets, improvement in waking compared with before administration; format: in vivo, human
[2] = test system: normal subjects; assay: Test Example 2: double blind parallel group test against tablets without ornithine, going to sleep and waking rated by Visual Analogue Scale (VAS) method; format: in vivo, human; details: 6 tablets of example 1 a day for 3 weeks; 7 subjects per group; 45 to 64 year
Procedure: Six tablets of example 1 (the tablet containing ornithine) or 6 tablets of comparative example 1 (the tablet not containing ornithine) were administered to two groups with 7 subjects out of 14 normal subjects of each male and female between 45 to 64 year a day for 3 weeks.
Before the administration and just after the administration, the improvements in going to sleep and waking of each subject were evaluated using Visual Analogue Scale (VAS) method.
Specifically each end of the segment has a criterion of expression. Referring to FIG. 1, each subject marked somewhere in the line, corresponding to each term of the questionnaires. The distance (mm) from the left end of the line to the marked point was measured and the difference between before and after the test was calculated. The difference by the value before the test was shown in the percentage calculated; and each average value and standard deviation for each group were calculated. Further the average improvement ratio (%) was the value obtained by subtracting the average value of the placebo group from the average value of ornithine group. Further, it was confirmed that there was no difference between two groups before the administration test.
Further the test was carried out under a random assignment and the comparison between the double blind parallel groups was carried out. […]

NCCC[C@H](N)C(=O)O [ornithine]
effect on the waking process (conclusion of test result) ([1]; oral intake of ornithine tablets): improved the waking process | subjects who showed an improvement in waking ([1]; oral, ornithine taken just before going to sleep): 3 subjects out of the 6 subjects | effect of intake just before going to sleep (conclusion of test result) ([1]; oral, taken just before going to sleep): effective | improvement in going to sleep (VAS, average improvement ratio vs placebo group, FIG. 2) [2]: improvement in going to sleep were obtained | improvement in the waking process (VAS, average improvement ratio vs placebo group, FIG. 2) [2]: improvement in the waking process was evident
